Reference: patent publication US8183215B2, “Method of administering oral flora-improving agent, antibacterial agent and growth promoter” (Megmilk Snow Brand Co., Ltd., priority 2004, dated 2012)
Bridge positions count the residues as written; N and C are the ends. Square brackets hold non-standard residues; d marks the D form. Peptide text beside a SMILES is read from it. * marks the point of attachment. Ileψ(thiazoline)Cys = CC[C@H](C)[C@H](N)C1=N[C@H](C(=O)*)CS1; dOrn = NCCC[C@@H](N)C(=O)O

Legend:
Assay in all cases: Radial Diffusion Assay, antibacterial / growth promoting activity
Type in all cases: cell-based
[1] = test system: Actinomyces naeslundii JCM8349 strain; conditions: for antibacterial activity / growth promoting activity: Actinomyces naeslundii JCM8349, 5 μl sample in hole, zone measured after 18 hours at 37° C.; for antibacterial and growth promoting activity, result in words: Actinomyces naeslundii JCM8349 strain
Description: (§1) The influences of gangliosides on oral bacteria were examined by Radial Diffusion Assay. That is, 3 mg of Tryptic Soy medium (Difco), 20 μl of Tween 20, and 100 mg of agarose were dissolved in 10 ml of ultrapure water and sterilized. 100 μl of solution of bacteria having an OD620 of 0.2 (5×10^7 cfu/ml) was added to the sterilized medium, and then the resultant mixture was dispensed in Petri dishes and allowed to solidify at room temperature. Each solidified medium was provided with a hole of about 2.5 mm in diameter and 5 μl of each solution of ganglioside GM3 or ganglioside GD3 derived from milk for the evaluation of the antibacterial effect was added to the hole and incubated at 37° C. for 1 hour. Further, a sterilized medium obtained by dissolving 0.6 g of Tryptic Soy medium and 100 mg of agarose in 10 ml of ultrapure water was superposed on the solidified medium and left to solidify at room temperature, and then stationary cultured in an incubator at 37° C. After 18 hours, the diameter of a clear zone formed around the hole formed in the medium was measured. A length obtained by subtracting the diameter (mm) of the hole formed in the medium from the diameter (mm) of a clear zone formed by inhibition of the growth of the bacterium was defined as antibacterial activity. On the other hand, when colonies of the bacterium were formed around the hole in the medium and an opaque zone was observed, it was assumed that growth promotion took place, and a length obtained by subtracting the diameter (mm) of the hole formed in the medium from the diameter (mm) of an opaque zone was defined as growth promotion activity. The bacterial strains subjected to the test include Streptococcus sobrinus 6715 strain, Streptococcus anginosus ATCC33397 strain, and Staphylococcus aureus Cowan I strain as harmful oral bacteria; Streptococcus agalactiae ATCC46448 strain and Actinomyces naeslundii JCM8349 strain as habitant oral bacteria; and Streptococcus mitis GTC495 strain, Streptococcus mitis ATCC6249 strain, and Streptococcus mitis ATCC903 strain as useful oral bacteria.
(§2) Bacitracin, which is an antibacterial component separated from Bacillus subtilis, was used as a positive control and a sample showing an antibacterial activity of 2.0 mm or more was judged to be positive (having an antibacterial activity). As for the growth promoting effect, a sample having a growth promoting activity of 1.0 mm or more was judged to be positive (having a growth promoting activity).

[2] = test system: Streptococcus mitis ATCC903 strain; conditions: 5 μl sample in hole, zone measured after 18 hours at 37° C.
Description: as §1, §2

[3] = test system: Streptococcus mitis ATCC6249 strain; conditions: 5 μl sample in hole, zone measured after 18 hours at 37° C.
Description: as §1, §2

[4] = test system: Streptococcus sobrinus 6715 strain; conditions: 5 μl sample in hole, zone measured after 18 hours at 37° C.
Description: as §1, §2

[5] = test system: Streptococcus anginosus ATCC33397 strain; conditions: 5 μl sample in hole, zone measured after 18 hours at 37° C.
Description: as §1, §2

[6] = test system: Streptococcus agalactiae ATCC46448 strain; conditions: for antibacterial activity / growth promoting activity: Streptococcus agalactiae ATCC46448, 5 μl sample in hole, zone measured after 18 hours at 37° C.; for antibacterial and growth promoting activity, result in words: Streptococcus agalactiae ATCC46448 strain
Description: as §1, §2

[7] = test system: Staphylococcus aureus Cowan I strain; conditions: 5 μl sample in hole, zone measured after 18 hours at 37° C.
Description: as §1, §2

[8] = test system: Streptococcus mitis GTC945; conditions: 5 μl sample in hole, zone measured after 18 hours at 37° C.
Description: as §1, §2

Molecule | antibacterial activity / growth promoting activity [1] | antibacterial and growth promoting activity, result in words [1] | antibacterial activity / growth promoting activity [2] | antibacterial activity / growth promoting activity [3] | antibacterial activity / growth promoting activity [4] | antibacterial activity / growth promoting activity [5] | antibacterial activity / growth promoting activity [6] | antibacterial and growth promoting activity, result in words [6] | antibacterial activity / growth promoting activity [7] | antibacterial activity / growth promoting activity [8]
ganglioside GM3 | − (Having no antibacterial activity) | neither an antibacterial activity nor a growth promoting activity | * (Having a growth promoting activity) | * (Having a growth promoting activity) | + (Having an antibacterial activity) | + (Having an antibacterial activity) | − (Having no antibacterial activity) | neither an antibacterial activity nor a growth promoting activity | + (Having an antibacterial activity) | * (Having a growth promoting activity)
ganglioside GD3 | − (Having no antibacterial activity) | neither an antibacterial activity nor a growth promoting activity | * (Having a growth promoting activity) | * (Having a growth promoting activity) | + (Having an antibacterial activity) | + (Having an antibacterial activity) | − (Having no antibacterial activity) | neither an antibacterial activity nor a growth promoting activity | + (Having an antibacterial activity) | * (Having a growth promoting activity)
CC[C@H](C)[C@H](N)C1=N[C@H](C(=O)N[C@@H](CC(C)C)C(=O)N[C@H](CCC(=O)O)C(=O)N[C@H](C(=O)N[C@H]2CCCCNC(=O)[C@H](CC(N)=O)NC(=O)[C@@H](CC(=O)O)NC(=O)[C@H](Cc3cnc[nH]3)NC(=O)[C@@H](Cc3ccccc3)NC(=O)[C@H]([C@@H](C)CC)NC(=O)[C@@H](CCCN)NC2=O)[C@@H](C)CC)CS1 [Bacitracin, reference compound] ({Ileψ(thiazoline)Cys}-L[dE]IK[dOrn]I[dF]H[dD]N; lactam 4-C) | + (Having an antibacterial activity) |  | + (Having an antibacterial activity) | + (Having an antibacterial activity) | + (Having an antibacterial activity) | + (Having an antibacterial activity) | + (Having an antibacterial activity) |  | + (Having an antibacterial activity) | + (Having an antibacterial activity)
